Values quoted from earlier work in patent US20050171434A1, “Chromophore probes for optical imaging” (VisEn Medical, Inc., priority 2002, published 2005).

λem (emission wavelength): 694 nm
λex (excitation wavelength): 675 nm
Substance: Cy5.5
